Assay results as given in US20230059463A1, “3-(2-BROMO-4-ALKYNYL-6-ALKOXYPHENYL)-SUBSTITUTED 5-SPIROCYCLOHEXYL-3-PYRROLIN-2-ONES AND THEIR USE AS HERBICIDES” (Bayer Aktiengesellschaft, priority 2019, published 2023).

Legend:
Assay type in all cases: in vivo
Hordeum murinum [1] = assay: Post-emergence herbicidal effect; conditions: 80 g/ha, post-emergence at one-leaf stage, assessed visually after about 3 weeks; 100% = plants have died, 0% = like control plants
Method: (§1) Seeds of monocotyledonous and dicotyledonous weed and crop plants are laid out in sandy loam soil in wood-fiber pots, covered with soil and cultivated in a greenhouse under good growth conditions. 2 to 3 weeks after sowing, the test plants are treated at the one-leaf stage. The compounds of the invention, formulated in the form of wettable powders (WP) or as emulsion concentrates (EC), are then sprayed onto the green parts of the plants as aqueous suspension or emulsion at a water application rate equating to 600 to 800 l/ha with addition of 0.2% wetting agent. After the test plants have been left to stand in the greenhouse under optimal growth conditions for about 3 weeks, the action of the preparations is assessed visually in comparison to untreated controls (herbicidal action in per cent (%): 100% activity=the plants have died, 0% activity=like control plants).

Digitaria sanguinalis = assay: Post-emergence herbicidal effect; conditions: 80 g/ha, post-emergence at one-leaf stage, assessed visually after about 3 weeks; 100% = plants have died, 0% = like control plants
Method: as §1

Setaria viridis [2] = assay: Post-emergence herbicidal effect; conditions: 80 g/ha, post-emergence at one-leaf stage, assessed visually after about 3 weeks; 100% = plants have died, 0% = like control plants
Method: as §1

Alopecurus myosuroides [3] = assay: Post-emergence herbicidal effect; conditions: 80 g/ha, post-emergence at one-leaf stage, assessed visually after about 3 weeks; 100% = plants have died, 0% = like control plants
Method: as §1

Lolium rigidum [4] = assay: Post-emergence herbicidal effect; conditions: 80 g/ha, post-emergence at one-leaf stage, assessed visually after about 3 weeks; 100% = plants have died, 0% = like control plants
Method: as §1

Echinochloa crus-galli [5] = assay: Post-emergence herbicidal effect; conditions: 80 g/ha, post-emergence at one-leaf stage, assessed visually after about 3 weeks; 100% = plants have died, 0% = like control plants
Method: as §1

Hordeum murinum [6] = assay: Pre-emergence herbicidal effect; conditions: 80 g/ha, scored visually after 3 weeks, 100% = plants have died, 0% = like control plants
Source text: (§2) Seeds of monocotyledonous and dicotyledonous weed plants and crop plants are laid out in sandy loam soil in wood-fiber pots and covered with soil. The compounds of the invention, formulated in the form of wettable powders (WP) or as emulsion concentrates (EC), are then applied to the surface of the covering soil as aqueous suspension or emulsion at a water application rate equating to 600 to 800 L/ha with addition of 0.2% wetting agent.
(§3) After the treatment, the pots are placed in a greenhouse and kept under good growth conditions for the trial plants. The damage to the test plants is scored visually after a test period of 3 weeks by comparison with untreated controls (herbicidal activity in percent (%): 100% activity=the plants have died, 0% activity=like control plants).

Setaria viridis [7] = assay: Pre-emergence herbicidal effect; conditions: 80 g/ha, scored visually after 3 weeks, 100% = plants have died, 0% = like control plants
Source text: as §2, §3

Alopecurus myosuroides [8] = assay: Pre-emergence herbicidal effect; conditions: 80 g/ha, scored visually after 3 weeks, 100% = plants have died, 0% = like control plants
Source text: as §2, §3

Lolium rigidum [9] = assay: Pre-emergence herbicidal effect; conditions: 80 g/ha, scored visually after 3 weeks, 100% = plants have died, 0% = like control plants
Source text: as §2, §3

Avena fatua = assay: Pre-emergence herbicidal effect; conditions: 80 g/ha, scored visually after 3 weeks, 100% = plants have died, 0% = like control plants
Source text: as §2, §3

Echinochloa crus-galli [10] = assay: Pre-emergence herbicidal effect; conditions: 80 g/ha, scored visually after 3 weeks, 100% = plants have died, 0% = like control plants
Source text: as §2, §3

| Structure (SMILES) | Post-emergence action against HORMU (herbicidal action in per cent) (Hordeum murinum [1]) [%] | Post-emergence action against DIGSA (herbicidal action in per cent) (Digitaria sanguinalis) [%] | Post-emergence action against SETVI (herbicidal action in per cent) (Setaria viridis [2]) [%] | Post-emergence action against ALOMY (herbicidal action in per cent) (Alopecurus myosuroides [3]) [%] | Post-emergence action against LOLRI (herbicidal action in per cent) (Lolium rigidum [4]) [%] | Post-emergence action against ECHCG (herbicidal action in per cent) (Echinochloa crus-galli [5]) [%] | Pre-emergence action against HORMU (herbicidal activity in percent) (Hordeum murinum [6]) [%] | Pre-emergence action against SETVI (herbicidal activity in percent) (Setaria viridis [7]) [%] | Pre-emergence action against ALOMY (herbicidal activity in percent) (Alopecurus myosuroides [8]) [%] | Pre-emergence action against LOLRI (herbicidal activity in percent) (Lolium rigidum [9]) [%] | Pre-emergence action against AVEFA (herbicidal activity in percent) (Avena fatua) [%] | Pre-emergence action against ECHCG (herbicidal activity in percent) (Echinochloa crus-galli [10]) [%] |
| --- | --- | --- | --- | --- | --- | --- | --- | --- | --- | --- | --- | --- |
| C#Cc1cc(Br)c(C2=C(O)C3(CCCC(OCCC)C3)NC2=O)c(OC)c1 (stereo not shown) [Example 1.1.01] | 80 | 90 | 100 | 90 | 90 | 100 | 90 | 100 | 90 | 100 | 100 | 100 |
| C#Cc1cc(Br)c(C2=C([O-])C3(CCCC(OCCC)C3)NC2=O)c(OC)c1.[Na+] (stereo not shown) [Example 1.1.02] | 100 | 100 | 100 | 100 | 100 | 100 | 100 | 100 | 100 | 100 | 100 | 100 |
| C#Cc1cc(Br)c(C2=C([O-])C3(CCCC(OCCOC)C3)NC2=O)c(OC)c1.[Na+] (stereo not shown) [Example 1.1.06] | 90 | 100 | 90 | 100 | 100 | 100 | 100 | 100 | 100 | 100 | 100 | 100 |
| CC#Cc1cc(Br)c(C2=C(OC(=O)OCC)C3(CCCC(OCCOC)C3)NC2=O)c(OC)c1 (stereo not shown) [Example 1.1.15] | 100 | – | 100 | 100 | 100 | 100 | 100 | 100 | 100 | 100 | 100 | 100 |
| CC#Cc1cc(Br)c(C2=C(OC(=O)C(C)C)C3(CCCC(OCCOC)C3)NC2=O)c(OC)c1 (stereo not shown) [Example 1.1.16] | 100 | – | 100 | 100 | 100 | 100 | 100 | 100 | 100 | 100 | 100 | 100 |
| CC#Cc1cc(Br)c(C2=C(O)C3(CCCC(OCCOC)C3)NC2=O)c(OCC)c1 (stereo not shown) [Example 1.1.17] | 100 | 100 | 100 | 100 | 100 | 100 | – | – | – | – | – | – |
| CC#Cc1cc(Br)c(C2=C([O-])C3(CCCC(OCCOC)C3)NC2=O)c(OCC)c1.[Na+] (stereo not shown) [Example 1.1.18] | 100 | 100 | 100 | 100 | 100 | 100 | – | – | – | – | – | – |
| CC#Cc1cc(Br)c(C2=C(OC(=O)OCC)C3(CCCC(OCCOC)C3)NC2=O)c(OCC)c1 (stereo not shown) [Example 1.1.19] | 100 | 100 | 100 | 100 | 100 | 100 | – | – | – | – | – | – |
